Measurements from the NIST ThermoML archive (doi:10.1016/j.jct.2013.08.020).
± gives the expanded uncertainty stated by the source.

Experiments:
[1] = Liquid; for vapor or sublimation pressure: Ebulliometric method (Recirculating still)
[2] = refractive index (Na D-line) (dimensionless); settings: 298.15 K; 101 kPa; Liquid; Standard Abbe refractometry

Row | vapor or sublimation pressure ([1]; 351.45 K) | refractive index [2] | mass density ([1]; 298.15 K, 101 kPa, Vibrating tube method) | vapor or sublimation pressure ([1]; 373.15 K) | Structure (SMILES)
1 | 101.3 ± 0.5 kPa | 1.35924 ± 0.00032 |  |  | CCO [ethanol]
2 |  | 1.43851 ± 0.00037 | 1049.68 ± 0.27 kg/m3 |  | OCCCO [propan-1,3-diol]
3 |  | 1.33237 ± 0.00032 |  | 101.3 ± 0.5 kPa | O [water]
